In publication PMC5120204, “Identification of an orally active small-molecule PTHR1 agonist for the treatment of hypoparathyroidism” (Nature Communications, 2016):
“Also recorded” adds a separate entry of the source. Like-named read-outs stand apart in the source and are kept apart here.

Assays:
[1] = Pharmacokinetics in OVX rats; type: in vivo; conditions: female, Crl:CD(SD), rat, plasma, iv
hPTHR2 = target: T1, hPTHR2 (Homo sapiens, UniProt P49190); assay: cAMP production assay in COS-7 cells expressing hPTHR2; type: cell-based; conditions: COS-7 cells expressing human PTHR2
T1 construct: expressed in transfected cells; host or cells: COS-7 (transient)
Protocol: COS-7 cells (ATCC) were seeded into a 96-well flat-bottomed plate (1.4 × 10^4 cells per 100 μl per well) and incubated overnight. The next day, the COS-7 cells were transfected by adding 10 μl of a mixture of hPTHR1, hPTHR2 or mutant hPTHR1 plasmid, rat PTHR1 or rat PTHR2 plasmid, or empty vector (0.1 μg per well), FuGENE HD Transfection Reagent (0.4 μl per well, Promega), and Opti-MEM I Reduced Serum Medium (10 μl per well, Life Technologies) to each well. […] The plate was placed in a 37 °C constant-temperature water bath for 20 min to allow the reaction to proceed. After incubation, the liquid in the wells was discarded, the wells were washed with the assay medium (100 μl per well), and the plate was frozen on dry ice. Next, 40 μl of 50 mmol l^−1 HCl was added to each well, and the plate was stored in a freezer set at ≤−20 °C. The cAMP concentrations were measured by using a cAMP EIA kit (GE Healthcare). EC50 values were determined from three independent experiments in duplicate by a non-linear regression Emax model (JMP ver.9.0.2, SAS Institute). The geometric mean of the EC50 values obtained in three experiments in duplicate was calculated using Microsoft Office Excel 2007. […]

normal dogs = assay: Single administration study in normal dogs; type: in vivo, dog; conditions: single oral administrations 3.0−30 mg kg^−1
Protocol: Marshall Beagle dogs (20 months old, male, Marshall BioResources Japan Inc) were treated once orally (vehicle or PCO371 at 3, 10 or 30 mg kg^−1). Six dogs were assigned to each group. Vehicle for PCO371 was the same as in the rat studies. The sample size was determined based on previous experiments with hPTHs in our laboratories (n=6). Blood was collected from the cephalic vein immediately before and at 1, 2, 4, 6, 8, 10 and 24 h after administration to measure serum Ca levels (o-CPC method, Wako Pure Chemical Industries).

[2] = tested on: 12 class B GPCRs (CGRP, calcitonin, CRF1, CRF2α, GLP-1, GLP-2, glucagon, secretin, GHRH, PAC1, VPAC1 and VPAC2); assay: Selectivity assay (Cerep), agonist and antagonist cAMP assays; type: cell-based; conditions: at 1 or 10 μmol l^−1; activity defined as >25% of positive control
Protocol: Selectivity assays against class B GPCRs were performed by Cerep (France). Agonistic and antagonistic effects of PCO371 against a panel of 12 class B GPCRs (CGRP, calcitonin, CRF1, CRF2α, GLP-1, GLP-2, glucagon, secretin, GHRH, PAC1, VPAC1 and VPAC2) were examined at PCO371 concentrations of 1 and 10 μmol l^−1. The following cell lines were used; T47D (calcitonin), βTC6 (GLP-1), HT-29 (VPAC1, VPAC2), CHO (CGRP, CRF1, GLP-2, Glucagon, Secretin, GHRH and PAC1, recombinant), and HEK-293 (CRF-2, recombinant). Their antagonistic activity was measured in the presence of the control agonists shown in Supplementary Table 1. In agonist and antagonist experiments, intracellular cAMP levels were determined with the HTRF detection system. EC50 and IC50 values of control agonists or antagonists were calculated by non-linear regression analysis of the concentration-response curves generated with mean replicate values using Hill equation curve-fitting using the formula: equation (2).
Y=response, A=left asymptote of the curve, D=right asymptote of the curve, C=compound concentration, C50=EC50 or IC50, nH=slope factor. Agonistic activity of PCO371 at 1 or 10 μmol l^−1 was calculated as a per cent of the control agonist response; intracellular cAMP accumulation by PCO371 × 100/intracellular cAMP accumulation by the control agonist at the EC50 concentration. […]

endogenous rat PTHR1 = target: T2, endogenous rat PTHR1 (Rattus norvegicus, UniProt P25961); assay: cAMP production in UMR-106 cells; type: cell-based
T2 construct: UMR-106 cells, which natively express rat PTHR1; endogenous in cells; host or cells: UMR-106 (ATCC)
T2 sequence (P25961 27-591): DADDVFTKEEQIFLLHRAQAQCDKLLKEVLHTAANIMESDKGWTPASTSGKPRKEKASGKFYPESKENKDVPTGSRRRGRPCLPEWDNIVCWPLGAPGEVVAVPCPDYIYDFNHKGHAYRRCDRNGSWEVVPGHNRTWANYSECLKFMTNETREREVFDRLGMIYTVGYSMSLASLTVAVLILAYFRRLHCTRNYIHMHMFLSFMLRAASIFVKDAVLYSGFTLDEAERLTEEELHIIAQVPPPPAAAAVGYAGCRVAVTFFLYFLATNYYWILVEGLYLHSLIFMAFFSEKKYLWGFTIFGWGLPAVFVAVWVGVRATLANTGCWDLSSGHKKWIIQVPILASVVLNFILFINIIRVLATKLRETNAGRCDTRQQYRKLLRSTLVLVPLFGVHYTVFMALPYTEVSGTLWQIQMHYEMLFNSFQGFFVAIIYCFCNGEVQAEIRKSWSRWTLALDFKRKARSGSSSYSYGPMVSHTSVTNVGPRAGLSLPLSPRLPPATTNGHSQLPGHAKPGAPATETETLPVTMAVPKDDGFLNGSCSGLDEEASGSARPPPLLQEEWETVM

T1 sequence (P49190 25-550): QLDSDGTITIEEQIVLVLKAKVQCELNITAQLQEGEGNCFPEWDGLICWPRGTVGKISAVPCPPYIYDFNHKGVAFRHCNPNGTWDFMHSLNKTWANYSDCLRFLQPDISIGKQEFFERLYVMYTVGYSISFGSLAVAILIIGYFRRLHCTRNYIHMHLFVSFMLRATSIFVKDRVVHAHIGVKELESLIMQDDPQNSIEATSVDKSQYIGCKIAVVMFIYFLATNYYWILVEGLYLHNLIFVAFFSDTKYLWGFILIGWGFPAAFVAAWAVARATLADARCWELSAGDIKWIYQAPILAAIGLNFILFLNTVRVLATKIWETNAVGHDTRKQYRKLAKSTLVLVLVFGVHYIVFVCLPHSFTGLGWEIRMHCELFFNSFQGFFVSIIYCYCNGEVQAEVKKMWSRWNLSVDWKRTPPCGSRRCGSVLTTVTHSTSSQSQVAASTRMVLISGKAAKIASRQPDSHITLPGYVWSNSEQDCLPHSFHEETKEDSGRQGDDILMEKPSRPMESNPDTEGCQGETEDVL

Cc1cc(N2C(=O)NC(=O)C2(C)C)cc(C)c1CCS(=O)(=O)N1CCC2(CC1)N=C(c1ccc(OC(F)(F)F)cc1)NC2=O [PCO371, 1-{3,5-dimethyl-4-[2-({4-oxo-2-[4-(trifluoromethoxy)phenyl]-1,3,8-triazaspiro[4.5]dec-1-en-8-yl}sulfonyl)ethyl]phenyl}-5,5-dimethylimidazolidine-2,4-dione]
concentration at 2 min ([1]; i.v. 3 mg kg-1, read-out: C2min (concentration at 2 min after administration)): 17500 ng/mL
concentration at 2 min ([1]; i.v. 10 mg kg-1, read-out: C2min (concentration at 2 min after administration)): 50100 ng/mL
cAMP production (hPTHR2): did not stimulate cAMP production
serum Ca (normal dogs): significantly increased
agonistic and antagonistic activities against 12 class B GPCRs [2]: did not show agonistic or antagonistic activity; also recorded: did not exhibit activity
cAMP production (endogenous rat PTHR1; 1 μmol l^−1, 20 min): did not induce cAMP production
cAMP production (endogenous rat PTHR1; 20 min): induced cAMP production
